From article PMC7002685, “Inhibition of vascular calcification by inositol phosphates derivatized with ethylene glycol oligomers” (Nature Communications, 2020)
Values joined by “and” are separate entries in the source; they are usually repeats but may differ in a detail not shown here. Equal entries are not always repeated.

What was measured:
[1] = biological target: T1, Cholinesterase, Acetyl, ACES (Homo sapiens, UniProt P22303); test: Off-target 104010; assay type: biochemical
T1 construct: purchased Eurofins Panlabs Discovery Services Taiwan, Ltd
Procedure: (§1) The potential off-target activity of 10 µM (OEG2)2-IP4 was assessed against a panel of 87 enzymes, receptors, or ion channels that are used in standard safety pharmacology screens.
(§2) 3.2. Off-target screening assay
(§3) The experiments were conducted by a contract research organization (Eurofins Panlabs Discovery
(§4) Services Taiwan, Ltd.) and details on the respective assays can be retrieved via the catalog number
(§5) provided in Supplementary Table 11 from the company’s webpage
(§6) (https://www.eurofinsdiscoveryservices.com/). […]

[2] = Protein binding in human plasma (ultrafiltration); assay type: in vitro ADME
Procedure: For many drugs, the PK profile depends on the patient’s renal status. Therefore, (OEG2)2-IP4 PK profile was also determined in an adenine and high-phosphate-diet-induced rat model of uremia, in which the compound was administered after serum creatinine levels had increased by fourfold relative to baseline (Fig. 4g, h). […] Similar results were observed following s.c. administration (Supplementary Table 5).
as §2
The experiments were conducted by a contract research organization (Eurofins Panlabs Discovery Services Taiwan, Ltd.) and details on the respective assays can be retrieved via the catalog number provided in Supplementary Table 11 from the company’s webpage […]
Concentrations of unbound (OEG2)2-IP4 in ultrafiltrated fractions and total (OEG2)2-IP4 concentrations were measured using a calibration prepared in ultrafiltrated pooled plasma and non-ultrafiltrated pooled plasma, respectively and LC-MS/MS quantification as described in Methods 6.3.
At sacrifice the left tibia of animals of the rat model with dietary adenine/high-phosphate-induced uremia and VC was collected, fixed with 70% v/v EtOH and embedded in methyl methacrylate. […] The total bone area (as percentage of total tissue area), osteoid area (as percentage of total bone area), and mineralized bone area (as percentage of total tissue area) were calculated from the primary measurements. […]

Monoamine Oxidase MAO-B = biological target: T2, Monoamine Oxidase MAO-B (Homo sapiens, UniProt P27338); test: Off-target 140120; assay type: biochemical
T2 construct: purchased Eurofins Panlabs Discovery Services Taiwan, Ltd
Procedure: as §1, §2
(§7) The experiments were conducted by a contract research organization (Eurofins Panlabs Discovery Services Taiwan, Ltd.) and details on the respective assays can be retrieved via the catalog number provided in Supplementary Table 11 from the company’s webpage
as §6
(§8) At sacrifice the left tibia of animals of the rat model with dietary adenine/high-phosphate-induced uremia and VC was collected, fixed with 70% v/v EtOH and embedded in methyl methacrylate. The trabecular bone compartment is known to be the most metabolic active i.e. actively re-structured bone compartment in CKD. Therefore, histomorphometric and micro-computed tomography (µCT) analysis of bone was performed on the trabecular compartment. Tibial sections were Goldner-stained for histomorphometric analysis of the proximal metaphysis using the AxioVision Release 4.5 software, as […]
(§9) described previously5. […]

[3] = test system: Calcium Channel L-Type, Phenylalkylamine; test: Off-target 215000; assay type: binding, Rat; conditions: 10 µM
Procedure: as §1, §2, §3, §4, §5, §6

Glutamate, Kainate = test: Off-target 232710; assay type: binding, Rat; conditions: 10 µM
Procedure: as §1, §2, §3, §4, §5, §6

[4] = Plasma calcium after s.c. administration in healthy rats; assay type: in vivo, rat; conditions: individual rats
Procedure: One potential side effect of inositol phosphate-based drugs is toxicity due to chelation of ionized serum calcium. […] At 100 µM (OEG2)2-IP4, 96 ± 2% of control serum-ionized calcium was measured.
(§10) To study PK in healthy animals, male Sprague-Dawley rats (Harlan, Correzzana, Italy) were housed up to three per cage with free access to water and standard chow (pellets 12 mm, global diet 2018 certificate, Mucedola, Srl, Settimo Milanese, Italy), and submitted to a 12-h light/dark cycle. Animals were administered i.v. 10 mg/kg of (OEG2)2-IP4 in saline solution i.v. (30 s bolus, 5 mL/kg) and s.c. (5 mL/kg), respectively, in three animals per route and treatment. […] Plasma calcium concentration was determined in pre-dose samples and in t = 30 min samples of both acute and chronic treatments using the calcium colorimetric assay. Blood samples of 100 µL were drawn at several time points from the caudal vein, centrifuged at (3000 × g, 4 °C, 10 min) and stored at −80 °C until analysis by liquid chromatography–tandem mass spectrometry (LC-MS/MS).

Histamine H1 = biological target: T3, Histamine H1 (Homo sapiens, UniProt P35367); test: Off-target 239610; assay type: binding
T3 construct: purchased Eurofins Panlabs Discovery Services Taiwan, Ltd
Procedure: as §1, §2, §7, §6, §8, §9

[5] = PK after sub-chronic s.c. treatment (7 days); assay type: in vivo, male Sprague-Dawley rats; conditions: for plasma concentration: unit not given
Procedure: as §10

Nicotinic Acetylcholine = test: Off-target 258590; assay type: binding, Human; conditions: 10 µM
Procedure: as §1, §2, §7, §6, §8, §9

Melanocortin MC1 = biological target: T4, Melanocortin MC1 (Homo sapiens, UniProt Q01726); test: Off-target 251100 (MC1); assay type: binding
T4 construct: purchased Eurofins Panlabs Discovery Services Taiwan, Ltd
Procedure: as §1, §2, §7, §6, §8, §9

PPARγ = biological target: T5, PPARγ (Homo sapiens, UniProt P37231); test: Off-target 267500; assay type: binding
T5 construct: purchased Eurofins Panlabs Discovery Services Taiwan, Ltd
Procedure: as §1, §2, §7, §6, §8, §9

T4 sequence (Q01726 whole entry): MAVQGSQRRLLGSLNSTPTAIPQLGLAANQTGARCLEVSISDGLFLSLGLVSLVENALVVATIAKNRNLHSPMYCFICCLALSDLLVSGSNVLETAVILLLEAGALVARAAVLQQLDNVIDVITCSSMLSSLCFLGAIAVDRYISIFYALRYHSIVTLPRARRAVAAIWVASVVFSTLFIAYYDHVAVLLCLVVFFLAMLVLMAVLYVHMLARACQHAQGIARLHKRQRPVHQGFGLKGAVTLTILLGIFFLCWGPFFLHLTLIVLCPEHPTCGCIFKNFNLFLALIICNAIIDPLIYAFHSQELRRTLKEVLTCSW
T2 sequence (P27338 whole entry): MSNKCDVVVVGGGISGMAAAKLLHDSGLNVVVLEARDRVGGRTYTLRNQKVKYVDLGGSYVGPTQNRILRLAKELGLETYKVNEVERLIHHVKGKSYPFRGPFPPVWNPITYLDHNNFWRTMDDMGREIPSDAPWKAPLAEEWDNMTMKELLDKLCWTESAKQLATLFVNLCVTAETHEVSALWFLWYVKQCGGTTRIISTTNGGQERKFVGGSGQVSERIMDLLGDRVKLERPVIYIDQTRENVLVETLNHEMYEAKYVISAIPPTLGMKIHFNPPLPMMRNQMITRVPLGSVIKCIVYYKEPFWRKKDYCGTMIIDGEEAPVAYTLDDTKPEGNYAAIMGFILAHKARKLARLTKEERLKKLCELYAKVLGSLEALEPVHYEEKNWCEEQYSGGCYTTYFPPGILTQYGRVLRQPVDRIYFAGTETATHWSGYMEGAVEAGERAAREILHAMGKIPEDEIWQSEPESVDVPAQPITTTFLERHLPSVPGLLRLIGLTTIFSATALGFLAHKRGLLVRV
T1 sequence (P22303 32-614): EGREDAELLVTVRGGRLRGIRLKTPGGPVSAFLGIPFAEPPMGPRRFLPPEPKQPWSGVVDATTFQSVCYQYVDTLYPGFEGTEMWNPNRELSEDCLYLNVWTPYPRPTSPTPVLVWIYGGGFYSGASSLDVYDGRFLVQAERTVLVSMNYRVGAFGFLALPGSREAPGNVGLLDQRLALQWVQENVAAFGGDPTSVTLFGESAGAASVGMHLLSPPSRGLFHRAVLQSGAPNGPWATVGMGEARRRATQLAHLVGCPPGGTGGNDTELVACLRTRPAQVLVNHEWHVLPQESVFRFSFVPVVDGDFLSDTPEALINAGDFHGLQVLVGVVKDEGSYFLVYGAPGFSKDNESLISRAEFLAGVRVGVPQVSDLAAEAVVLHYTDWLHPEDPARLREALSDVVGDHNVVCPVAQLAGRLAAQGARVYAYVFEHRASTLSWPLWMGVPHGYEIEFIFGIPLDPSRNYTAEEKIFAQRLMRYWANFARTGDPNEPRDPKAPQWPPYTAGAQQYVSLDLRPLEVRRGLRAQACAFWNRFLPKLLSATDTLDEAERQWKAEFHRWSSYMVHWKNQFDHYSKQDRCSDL
T3 sequence (P35367 whole entry): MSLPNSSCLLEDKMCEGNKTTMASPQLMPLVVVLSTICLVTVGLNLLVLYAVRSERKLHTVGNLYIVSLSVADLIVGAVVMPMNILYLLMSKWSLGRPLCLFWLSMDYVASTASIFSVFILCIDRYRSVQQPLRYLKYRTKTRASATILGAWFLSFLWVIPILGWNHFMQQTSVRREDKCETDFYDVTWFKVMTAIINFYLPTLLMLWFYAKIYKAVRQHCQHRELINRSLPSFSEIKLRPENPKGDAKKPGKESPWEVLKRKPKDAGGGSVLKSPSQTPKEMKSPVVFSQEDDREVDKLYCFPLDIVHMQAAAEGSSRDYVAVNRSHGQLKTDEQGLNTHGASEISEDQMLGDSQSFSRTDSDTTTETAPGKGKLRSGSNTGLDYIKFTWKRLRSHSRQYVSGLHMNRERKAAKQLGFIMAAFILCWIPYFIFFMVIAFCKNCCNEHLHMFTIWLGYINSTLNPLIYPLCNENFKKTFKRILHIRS
T5 sequence (P37231 whole entry): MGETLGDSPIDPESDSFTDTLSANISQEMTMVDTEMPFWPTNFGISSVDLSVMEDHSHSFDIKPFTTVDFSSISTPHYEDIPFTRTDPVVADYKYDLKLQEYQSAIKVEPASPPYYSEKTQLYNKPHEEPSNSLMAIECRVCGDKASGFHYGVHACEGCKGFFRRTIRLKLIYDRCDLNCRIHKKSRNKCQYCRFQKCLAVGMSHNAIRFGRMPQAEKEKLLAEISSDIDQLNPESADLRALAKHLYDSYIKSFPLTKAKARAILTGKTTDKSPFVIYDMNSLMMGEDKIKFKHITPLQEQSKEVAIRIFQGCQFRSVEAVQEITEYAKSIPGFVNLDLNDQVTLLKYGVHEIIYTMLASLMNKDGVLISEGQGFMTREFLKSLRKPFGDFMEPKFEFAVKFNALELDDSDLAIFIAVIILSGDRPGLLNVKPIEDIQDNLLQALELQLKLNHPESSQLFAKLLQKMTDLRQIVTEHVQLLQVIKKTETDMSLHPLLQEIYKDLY

COCCOCCO[C@@H]1[C@@H](OP(=O)(O)O)[C@H](OCCOCCOC)[C@@H](OP(=O)(O)O)[C@@H](OP(=O)(O)O)[C@H]1OP(=O)(O)O [(OEG2)2-IP4, 4,6-Di-O-(methoxy-diethyleneglycol)-myo-inositol-1,2,3,5-tetrakis(phosphate)]
inhibition at 10 µM [1]: 5% | protein-bound fraction in healthy human plasma ([2]; total measured concentration 2.8 µg/mL (4 µM)): 58% | protein-bound fraction in healthy human plasma ([2]; total measured concentration 27.5 µg/mL (39.5 µM)): 42% | inhibition at 10 µM (Monoamine Oxidase MAO-B): 0% | % Inhibition [3]: -4% | % Inhibition (Glutamate, Kainate): 17% | plasma calcium (Figure 4k) ([4]; Acute, 30 min postdose): 2.45 and 2.725 and 1.925 and 1.85 | plasma calcium (Figure 4k) ([4]; Acute, Predose): 2.8 and 2.45 and 2.3 and 1.975 | plasma calcium (Figure 4k) ([4]; Sub-chronic, 30 min postdose): 2.175 and 2.2 and 2.05 and 1.925 | plasma calcium (Figure 4k) ([4]; Sub-chronic, Predose): 2.275 and 2.3 and 2.55 and 1.925 | inhibition at 10 µM (Histamine H1): 4% | accumulation following repeated s.c. administration ([5]; 50 mg/kg for 7 days): No significant accumulation | plasma concentration ([5]; 50 mg/kg/day s.c. sub-chronic (7 days), time 0): 0.18 and 0.24 and 0.25 and 0.16 | plasma concentration ([5]; 50 mg/kg/day s.c. sub-chronic, time 0.5): 82.39 and 90 and 95.45 and 69.57 | plasma concentration ([5]; 50 mg/kg/day s.c. sub-chronic, time 1): 64.18 and 72.74 and 67.54 and 66.21 | plasma concentration ([5]; 50 mg/kg/day s.c. sub-chronic, time 2): 31.83 and 38.97 and 22.86 and 35.06 | plasma concentration ([5]; 50 mg/kg/day s.c. sub-chronic, time 8): 0.78 and 0.86 and 0.76 and 0.85 | plasma concentration ([5]; 50 mg/kg/day s.c. sub-chronic, time 24): 0.07 and 0.13 and 0.08 | % Inhibition (Nicotinic Acetylcholine): -5% | inhibition at 10 µM (Melanocortin MC1): 9% | inhibition at 10 µM (PPARγ): 2%
